Assay results reported in PMC12703502, “Characterization of Novel Angiotensin-Converting Enzyme Inhibitory Peptides” (ACS Medicinal Chemistry Letters, 2025).
Where two headings read alike, the source gives them in different places. Where no end group is shown, it is not given here.

What was measured:
[1] = tested on: ACE C-domain and N-domain; design: method as in 2 sources, one per row (each row's own in cited_ref): ref 22 (probable, citation mark not shown) ||| ref 20 (probable, citation mark not shown); conditions: C-domain vs N-domain; ref 22 (probable, citation mark not shown); cited from earlier work
Text: Both drugs are tripeptides-analogues and present a proline-like C-terminal extremity to interact with the S2′ pocket of ACE, which is composed of Gln281, Tyr520, Lys511, His513, and His353. […] Captopril presents a smaller structure with a sulfhydryl group at the N-terminal to interact with the zinc ion.

[2] = biological target: Angiotensin-converting enzyme (ACE) (Homo sapiens, UniProt P12821); assay: ACE inhibition, Cushman & Cheung method with slight modifications (HHL substrate); type: biochemical
Text: Characterization of Novel Angiotensin-Converting Enzyme Inhibitory Peptides Camila Innocente-Alves1,2, Sara Luísa Sulzbach1, Emerson Gonçalves Moreira3, Raul Izidoro Carneiro3, Lucélia Santi1,2,3, Hugo Verli2,3, Walter Orlando Beys-da-Silva1,2,3* 1 Faculdade de Farmácia, Universidade Federal do Rio Grande do Sul, Porto Alegre, Brasil 2 Programa de Pós-Graduação em Biologia Celular e Molecular, Universidade Federal do Rio Grande do Sul, Porto Alegre, Brasil
3 Centro de Biotecnologia (CBiot), Universidade Federal do Rio Grande do Sul, Porto Alegre,
* corresponding author: walter.beys@ufrgs.br
Selection of the bioactive peptides
The peptides were selected from a previous virtual screening performed against our chemical library (PepDB), and evaluated in vitro for its antihypertensive potential. The structures of the peptides, […] […]
PyRosetta. […] The molecular docking result was evaluated usin g the Protein-Ligand Interaction Profile (PLIP) tool ( https://plip-tool.biotec.tu-dresden.de/) for characterization of the interactions and PyMOL ( https://www.pymol.org/) visualization. […]
The peptides were synthesized by AminoTech ( São Paulo, Brazil). […] The ability of the peptides to inhibit ACE activity was evaluated by the Cushman & Cheung method with slight modifications. Absorbances were read at 228 nm (Spectramax M2, Molecular Devices) and ACE inhibition was expressed as percentage of inhibition. […]

ACE = conditions: peony seed peptides, VLSGF vs HWS; cited from earlier work

Chain of Angiotensin-converting enzyme (ACE) (P12821 30-1306, species assumed): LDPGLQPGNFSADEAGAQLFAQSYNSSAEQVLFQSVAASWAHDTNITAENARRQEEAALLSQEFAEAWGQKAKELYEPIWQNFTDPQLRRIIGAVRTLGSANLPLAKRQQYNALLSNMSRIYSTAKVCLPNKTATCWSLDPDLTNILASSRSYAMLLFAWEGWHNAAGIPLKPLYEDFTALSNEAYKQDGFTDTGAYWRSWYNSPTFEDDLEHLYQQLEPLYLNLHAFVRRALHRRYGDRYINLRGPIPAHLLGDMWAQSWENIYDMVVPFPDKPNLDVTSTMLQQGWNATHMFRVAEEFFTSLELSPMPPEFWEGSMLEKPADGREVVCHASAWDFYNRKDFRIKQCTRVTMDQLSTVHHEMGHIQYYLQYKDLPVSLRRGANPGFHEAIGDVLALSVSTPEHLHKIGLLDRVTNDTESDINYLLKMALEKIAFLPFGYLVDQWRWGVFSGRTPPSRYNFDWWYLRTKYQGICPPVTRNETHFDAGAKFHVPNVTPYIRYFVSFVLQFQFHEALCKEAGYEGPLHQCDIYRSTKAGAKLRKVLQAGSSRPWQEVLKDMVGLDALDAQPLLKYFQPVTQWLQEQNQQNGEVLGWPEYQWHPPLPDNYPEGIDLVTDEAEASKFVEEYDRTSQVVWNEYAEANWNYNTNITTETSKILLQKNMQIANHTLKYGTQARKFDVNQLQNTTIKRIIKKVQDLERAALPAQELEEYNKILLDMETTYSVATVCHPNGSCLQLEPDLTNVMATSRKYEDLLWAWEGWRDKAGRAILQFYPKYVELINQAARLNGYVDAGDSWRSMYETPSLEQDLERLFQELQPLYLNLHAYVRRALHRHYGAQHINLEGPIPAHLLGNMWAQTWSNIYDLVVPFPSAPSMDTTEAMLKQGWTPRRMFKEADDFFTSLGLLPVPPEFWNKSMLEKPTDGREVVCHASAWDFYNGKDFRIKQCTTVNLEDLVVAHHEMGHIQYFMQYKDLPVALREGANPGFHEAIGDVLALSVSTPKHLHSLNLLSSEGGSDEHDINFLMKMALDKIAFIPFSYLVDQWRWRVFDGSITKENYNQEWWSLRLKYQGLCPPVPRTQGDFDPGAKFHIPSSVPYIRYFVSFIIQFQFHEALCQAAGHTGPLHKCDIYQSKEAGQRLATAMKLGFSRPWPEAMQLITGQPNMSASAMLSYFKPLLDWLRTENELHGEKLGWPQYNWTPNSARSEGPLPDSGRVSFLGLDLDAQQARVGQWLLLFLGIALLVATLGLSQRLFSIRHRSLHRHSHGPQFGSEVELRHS

In the case of NCCCC[C@H](N[C@@H](CCc1ccccc1)C(=O)O)C(=O)N1CCC[C@H]1C(=O)O [Lisinopril], the “affinity to ACE domains” value [1] is listed as “higher affinity to the C-domain”.
MSFLEHFLELK [PepDB_AHP1] gave an IC50 ([2]; Cushman & Cheung method, HHL substrate, absorbance 228 nm, at least triplicates, nonlinear regression GraphPad Prism 8.0.1, read-out: IC50) of 331 µM.
In the case of VLSGF, the “relative IC50” value (ACE) is listed as “lower IC50”.
VWTNCYHLYPAH [PepDB_AHP4] showed an IC50 [2] of 88.6 µM.
